Results: patent US20090325992A1, “COMPOUND HAVING CYCLIC GROUP BOUND THERETO THROUGH SPIRO BINDING AND USE THEREOF” (ONO PHARMACEUTICAL CO., LTD., priority 2006, published 2009)
Where two headings read alike, the source gives them in different places.

How the values were obtained:
[1] = tested on: CHL/IU (cell line derived from a Chinese hamster lung); assay: Phospholipidosis detecting system using fluorescent labeling phospholipid analog (NBD-PE); assay type: cell-based; conditions: for Rate of increase of phospholipid accumulation (%) (compound dose: 200 μM): CHL/IU cells, compound dose 200 μM, about 48 hours, relative to NBD-PE control
Method: Investigation with Phospholipidosis Detecting System using Fluorescent Labeling Phospholipidosis Analog under Severity Condition (1) Phospholipid Accumulation Measurement 100 μL/well as required (1 dose 2 wells) of cell suspension of CHL/IU (cell line derived from a Chinese hamster lung) (7×10^4 cells/mL) prepared by MEM (minimum essential medium) culture medium was added to a 96-well plate (96-well clear-bottom plate), and cultured for about 24 hours. After culture, the supernatant of the 96-well plate was removed, and the 100 μL/well compounds of each concentration dissolved and suspended in an MEM including 25 μmol/L nitrobenzoxadiazole dipalmitoyl phosphatidylethanolamine (NBD-PE) (hereinafter abbreviated as a NPD-PE medium) were added and treated for about 48 hours. The treatment concentrations of each compound were set to be 5, 50, 100 and 200 μM. The positive control substance was set to be amiodarone hydrochloride, and the treatment concentrations were set to be 1.25, 2.5, 5, 10 and 20 μM. In addition, 5-well untreated controls (only MEM) and 5-well NBD-PE controls (made by means of adding a 1/100 amount of DMSO to the NBD-PE culture medium) were set per compound, and cultured in the same manner. After finishing the culture, the cultures were washed twice with phosphate buffered saline (hereinafter abbreviated as PBS) (−) 100 μL/well, and the MEM (100 μL) was added to all of the treatment wells including two empty wells for WST-1 background controls and cultured for about a half hour. The fluorescence intensities of each well were measured by using a microplate reader (manufactured by Molecular Devices Inc., SPECTRA max M2; the excitation wavelength 485 nm/fluorescence wavelength 535 nm). (2) Analysis Using the average values of each dose×2 wells, a phospholipid increase rate (%) to the NBD-PE control was calculated by using the following calculating formula: Rate of increase of phospholipid accumulation (%)=100×{(test compound fluorescence intensity−non-treated control fluorescence intensity)/(NBD-PE control fluorescence intensity−non-treated control fluorescence intensity)} [Equation 2] (3) Cytotoxicity Assay 96-well plate measured in the phospholipid accumulation measurement was measured by means of Plate Reader (manufactured by Molecular Devices Inc., SPECTRA max M2) with the main wavelength of 450 nm and the correct wavelength of 690 nm to calculate a Pre value. An amount of 5 μL/well of Premix WS T-1 was added to each of the 96-hole plates by which Pre measurement was conducted. After culture for 2 to 4 hours, the 96-well plate was measured as well as the Pre measurement to calculate an Aft value. Then, the background control value was subtracted from the each measured value. A value which was calculated by subtracting the Pre value from the Aft value was used, then the cell growth rate (%) was calculated by using the following calculating formula: Cell growth rate (%)=100×[(test substance OD)/(NBD-PE control OD)] [Equation 3] (4) Determination A test dose that indicated value of 25% or more of the maximum phospholipid accumulation increase rate of amiodarone which was the positive control was determined as positive. In addition, the dose whose cell growth rate was equal to or less than 50% in the cytotoxicity assay was not used for determination of existence or nonexistence of a phospholipidosis inductive effect.

[2] = rat, in vivo, iv, 1 mg/kg
Method: (§1) Measurement of Maximum Plasma Level (Cmax) and Stationary State Distribution Volume (Vss)
(§2) A compound to be evaluated is weighed, dissolved in WellSolve (trade name; manufactured by Celeste Corporation) which is heated to 60° C. and adjusted to 20 mg/mL; thereafter, the test compound is diluted by 10 times with distilled water for injection, and further diluted by 2 times with saline solution, by which intravenously administered solution is eventually made. A compound to be evaluated is dissolved in WellSolve which is heated to 60° C. and adjusted to 50 mg/mL; thereafter, the compound to be evaluated is diluted with distilled water for injection and adjusted to 1 mg/mL. Five compounds (one set) were mixed in the same amount and adjusted to final concentration of 0.2 mg/mL per one compound, by which orally administered solution is eventually made. […] The administration is conducted under fasting conditions; water is freely ingested. In the case of intravenous administration, a 0.35 mL of blood sample is taken from cervical vein by using Heparinized Syringe at 5 minutes, 15 minutes, 30 minutes, 1 hour, 2 hours, 4 hours, 6 hours, 8 hours, and 24 hours after administration. […] The obtained blood is stored in ice, and after centrifugation at 12,000 rpm for 3 minutes, blood plasma is fractionated. In the case of intravenous administration, the blood plasma sample preserved at a temperature of −80° C. is dissolved; inner standard solution (100 μL) and acetonitrile (2 mL) are added to the blood plasma sample (100 μL) and stirred, and the sample is centrifuged at 2,500 rpm for 10 minutes.
(§3) After the supernatant centrifuged is evaporated to dryness by means of a centrifugal concentrator, 67% dimethyl sulfoxide solution (150 μL) is added to the residue and dissolves them again and 20 μL of the solution is analyzed by means of LC/MS/MS.
(§4) Measurement device: Waters 2795 (manufactured by Waters Corporation) Analytical column: Unison UK-C18, 3.0 μm particle size, 2.0 mm×30 mm (manufactured by Imtakt Corporation) Analytical column temperature: Room temperature Flow rate: 200 μL/min Moving bed: 5 mM IPC-PFAA-7 solution/acetonitrile (9/1→1/9)
(§5) Measurement device: Quatro micro API (manufactured by Micromass Communications Inc.) Scan type: MPM
(§6) The monitor ion which was suitable for each sample was selected.
(§7) A portion of the compound to be intravenously administered was subjected to the following treatment. The blood plasma sample preserved at a temperature of −80° C. is dissolved; inner standard solution (50 μL) and acetonitrile (1 mL) are added to the blood plasma sample (50 μL) and stirred, and the sample is centrifuged at 3,000 rpm for 10 minutes. After the supernatant is evaporated to dryness by means of a centrifugal concentrator, the residue was redissolved in water/acetonitrile (1/1) and the solution is analyzed by means of LC/MS/MS under the following conditions.
(§8) Measurement device: 1200 series system (manufactured by Agilent Technologies) Analytical column: Asahipak OOD-50 2D, 2×150 mm (manufactured by Showa Denko K.K.) Analytical column temperature: Room temperature Moving bed: 5 mM IPC—PFAA-7 solution/acetonitrile (gradient) Flow rate: 200 μL/min

[3] = Measurement of maximum plasma level (Cmax) and stationary state distribution volume (Vss); conditions: male, Crl:CD(SD), rat, iv, 1 mg/kg
Method: as §1, §2, §3, §4, §5, §6, §7, §8

[4] = Artificial lipid membrane binding using Biacore S51 system; conditions: for Value of binding response (RU): DOPA liposome, 50 μM compound, PBS/5% DMSO pH 7.4, 37° C., corrected value; for Determination (artificial lipid membrane binding): positive = corrected binding response 150 or more
Method: Artificial Lipid Membrane Binding Account by using Biacore® S51 System
10 mM of 1,2-dioleoyl-sn-glycero-3-phosphate monosodium salt (hereinafter abbreviated as DOPA) chloroform solution was evaporated to dryness by means of an aspirator, and 0.6 mL of PBS/5% dimethyl sulfoxide (hereinafter abbreviated as DMSO) was added. The chloroform solution was fully suspended by means of a vortex mixer, and the freezing and thawing were repeated for 5 times. Liposome was created by means of a liposome preparation instrument (manufactured by Avestin Inc.) and two syringes, and was diluted to 0.5 mM with PBS/5% DMSO just prior to immobilization.
(2) Measurement Compound Preparation
38 μl of 1×PBS is added to 2 μl of a DMSO solution (10 mM), and further the 360 μl of 1×PBS/5% DMSO was added and the 50 μM of final concentration in PBS/5% DMSO was prepared and measured.
All of the following analysis used Biacore® S51 system and the measurement conditions were set by Biacore S51 Control Soft.
The measurement temperature was set to be 37° C., and PBS/5% DMSO (pH 7.4 or 6.0) was used as a buffer. Series S Sensor Chip L1 was used for a sensor chip. DOPA was immobilized in one of the measuring spots on the sensor surface and the central spot was used as a reference.
Immobilization of liposome was conducted at a flow rate of 10 μL/min for about 3 minutes and then the compound was added at a flow rate of 30 μL/min and the interaction was measured. The measurement conditions are as follows:
Assay buffer: PBS/5% DMSO (pH 7.4) Measurement temperature: 37° C. Sensor chip: Series S Sensor Chip L1 Flow rate: 10 μL/min at the time of the liposome immobilization; 30 μL/min at the time of the measurement of interaction with the compound Regeneration: 20 mM CHAPS (3-[(3-cholamidopropyl)dimethylammonio]-1-propanesulfonate), isopropylalcohol/aqueous 50 mM sodium hydroxide solution=40/60 (volume ratio) mixture solution (60 seconds)
The data processing was conducted by means of method of Abdiche et al., (Analytical biochemistry, 328, 233-243 (2004)) by using Biacore S51 Evaluation Soft.
Regarding the value of binding response (RU) in which the value of reference was subtracted, it was divided by a sample molecular weight after minute error of the DMSO concentration included in the sample solution was corrected. In addition, the value obtained here was divided by an amount of capture at the time of the cycle because the value obtained here was proportional to the amount of capture of the liposome and the value was multiplied by a million to be considered as a corrected value (Corrected value=1,000,000×RU (test compound)/molecular quantity (test compound) RU (liposome)).
The compound wherein a value of the binding response after the correction was 150 or more was determined as positive.

[5] = molecular target: T1, CXCR4 (human T cell strain CEM cells) (Homo sapiens, UniProt P61073); assay: Inhibition of binding human SDF-1 to CEM cells (125I-SDF-1); conditions: 4° C., 60 minutes
T1 construct: a human T cell strain in which CXCR4 is known to be expressed; endogenous in cells; host or cells: CEM cells (human T cell strain)
T1 sequence (P61073 whole entry): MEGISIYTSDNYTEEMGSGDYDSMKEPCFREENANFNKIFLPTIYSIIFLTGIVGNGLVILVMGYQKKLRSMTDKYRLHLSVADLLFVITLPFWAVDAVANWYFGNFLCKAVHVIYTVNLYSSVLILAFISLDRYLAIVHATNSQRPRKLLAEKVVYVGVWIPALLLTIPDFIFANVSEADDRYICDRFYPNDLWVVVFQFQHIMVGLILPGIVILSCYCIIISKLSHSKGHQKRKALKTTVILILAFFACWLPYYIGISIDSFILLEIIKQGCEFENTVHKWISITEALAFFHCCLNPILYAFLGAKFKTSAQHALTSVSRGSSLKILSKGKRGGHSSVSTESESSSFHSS
Method: Specifically, as a system of screening a compound that inhibits the binding between SDF-1 and CXCR4, for example a system of measuring the binding between iodine-labeled SDF-1 and a human T cell strain in which CXCR4 is known to be expressed is operable.
Study for Inhibition of Binding Human SDF-1 to CEM Cells
To human T cell strain CEM cells in a binding buffer (containing HEPES and BSA), the test compound and ^125I-SDF-1 (PerkinElmer) were added and the mixture was incubated at 4° C. for 60 minutes. The reacted CEM cells were rapidly filtrated with a GF/B membrane filter plate (Packard) to adsorb. The plate was washed with phosphate buffered saline (hereinafter abbreviated to PBS) three times and then dried. Microscint+20 (Packard) was added thereto. An amount of the radioactivity bound to the CEM cells was measured using Top Count (Packard) and inhibition (%) of the test compound was calculated according to the following equation:
Inhibition={(Et−Ea)/(Et−Ec)}×100 [Equation 1]
Et: Amount of radioactivity when the test compound is not added,
Ec: Amount of radioactivity when non-radioactive SDF-1 (Pepro Tech) is added in an amount of 1,000 times as much as ^125I-SDF-1 as a test compound, and
Ea: Amount of radioactivity when the test compound is added.

[6] = positive = 25% or more of the maximum increase rate of amiodarone

| Structure (SMILES) | Determination (phospholipidosis, NBD-PE system) [1] | Distribution volume (L/kg) (stationary state distribution volume, Vss) [2] | Rate of increase of phospholipid accumulation (%) (compound dose: 200 μM) [1] | Determination (phospholipidosis, NBD-PE system) [1, 6] | Vd [3] [L/kg] | Value of binding response (RU) [4] [RU] | Determination (artificial lipid membrane binding) [4] | IC50 [5] [nM] |
| --- | --- | --- | --- | --- | --- | --- | --- | --- |
| CC(C)CN1CCC2(CC1)CCN(CCCn1ccnc1CN(CCCC(=O)O)Cc1ncc[nH]1)C2 [Example 22(3), 4-[(1H-imidazol-2-ylmethyl)({1-[3-(8-isobutyl-2,8-diazaspiro[4.5]deca-2-yl)propyl]-1H-imidazol-2-yl}methyl)amino]butanoic acid] | Negative | 0.90 | – | – | – | – | – | – |
| CC(C)CN1CCC2(CC1)CCN(CCCn1ccnc1CN(Cc1ccc(CC(=O)O)cc1)Cc1ncc[nH]1)C2 [Example 22(4), (4-{[(1H-imidazol-2-ylmethyl)({1-[3-(8-isobutyl-2,8-diazaspiro[4.5]deca-2-yl)propyl]-1H-imidazol-2-yl}methyl)amino]methyl}phenyl)acetic acid] | – | – | 16 | Negative | 1.1 | 23.4 | Negative | 20.7 |
| CCC(CC)N1CCC2(CCN(CCCn3ccnc3CN(CCCC(=O)O)Cc3ncc[nH]3)C2)CC1 [Example 25(1), 4-{[(1-{3-[8-(1-ethylpropyl)-2,8-diazaspiro[4.5]deca-2-yl]propyl}-1H-imidazol-2-yl)methyl](1H-imidazol-2-ylmethyl)amino}butanoic acid] | – | – | 16 | Negative | 0.36 | 28.3 | Negative | 6.6 |
| O=C(O)COc1ccc(CN(Cc2ncc[nH]2)Cc2nccn2CCCN2CCC3(CCN(C4CCCCC4)CC3)C2)cc1 [Example 41(6), (4-{[({1-[3-(8-cyclohexyl-2,8-diazaspiro[4.5]deca-2-yl)propyl]-1H-imidazol-2-yl}methyl)(1H-imidazol-2-ylmethyl)amino]methyl}phenoxy)acetic acid] | – | – | 16 | Negative | – | 72.9 | Negative | 4.4 |
| O=C(O)COc1cccc(CN(Cc2ncc[nH]2)Cc2nccn2CCCN2CCC3(CCN(C4CCCCC4)CC3)C2)c1 [Example 41(7), (3-{[({1-[3-(8-cyclohexyl-2,8-diazaspiro[4.5]deca-2-yl)propyl]-1H-imidazol-2-yl}methyl)(1H-imidazol-2-ylmethyl)amino]methyl}phenoxy)acetic acid] | – | – | 21 | Negative | – | 63.6 | Negative | 4.5 |
| CCC(CC)N1CCC2(CCN(CCCn3ccnc3CN(Cc3cccc(OCC(=O)O)c3)Cc3ncc[nH]3)C2)CC1 [Example 43(1), [3-({[(1-{3-[8-(1-ethylpropyl)-2,8-diazaspiro[4.5]deca-2-yl]propyl}-1H-imidazol-2-yl)methyl](1H-imidazol-2-ylmethyl)amino}methyl)phenoxy]acetic acid] | – | – | 14 | Negative | 0.42 | 41.2 | Negative | 6.3 |
| CCC(CC)N1CCC2(CCN(CCCn3ccnc3CN(Cc3ccc(OCC(=O)O)cc3)Cc3ncc[nH]3)C2)CC1 [Example 43, [4-({[(1-{3-[8-(1-ethylpropyl)-2,8-diazaspiro[4.5]deca-2-yl]propyl}-1H-imidazol-2-yl)methyl](1H-imidazol-2-ylmethyl)amino}methyl)phenoxy]acetic acid] | – | – | 16 | Negative | 0.65 | 36.1 | Negative | 4 |
